# Test results from ChEMBL document CHEMBL1201862, “PubChem BioAssay data set” (2004).
# Activity calls are given as the source filed them.
# Legend:
# Escherichia coli = experiment: microbe, parasite or virus in culture
# [1] = molecular target: T1, High affinity choline transporter 1 (Homo sapiens, UniProt Q9GZV3); experiment: human choline transporter blockers, potency – cell-based, 5-point CRC, membrane potential dye, dose response (AID 504840); assay type: functional
# T1 sequence (Q9GZV3 whole entry): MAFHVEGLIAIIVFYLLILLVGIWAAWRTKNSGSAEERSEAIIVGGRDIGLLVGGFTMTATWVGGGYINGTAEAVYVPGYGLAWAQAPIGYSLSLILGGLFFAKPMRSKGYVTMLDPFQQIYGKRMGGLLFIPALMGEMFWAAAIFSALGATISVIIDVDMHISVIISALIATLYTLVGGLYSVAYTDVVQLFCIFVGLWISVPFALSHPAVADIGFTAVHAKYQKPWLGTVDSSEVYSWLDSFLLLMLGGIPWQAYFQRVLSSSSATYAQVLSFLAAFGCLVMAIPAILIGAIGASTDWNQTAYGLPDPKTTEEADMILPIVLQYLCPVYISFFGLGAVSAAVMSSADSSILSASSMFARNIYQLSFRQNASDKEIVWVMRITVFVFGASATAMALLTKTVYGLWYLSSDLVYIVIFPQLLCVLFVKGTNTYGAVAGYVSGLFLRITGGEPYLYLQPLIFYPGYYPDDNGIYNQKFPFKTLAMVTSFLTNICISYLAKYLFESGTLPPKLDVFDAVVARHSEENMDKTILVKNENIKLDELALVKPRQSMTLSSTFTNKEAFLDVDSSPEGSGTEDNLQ
# Cytochrome P450 2C9 = Cytochrome P450 2C9 (Homo sapiens, UniProt P11712)
# Sequence of Cytochrome P450 2C9 (P11712 whole entry): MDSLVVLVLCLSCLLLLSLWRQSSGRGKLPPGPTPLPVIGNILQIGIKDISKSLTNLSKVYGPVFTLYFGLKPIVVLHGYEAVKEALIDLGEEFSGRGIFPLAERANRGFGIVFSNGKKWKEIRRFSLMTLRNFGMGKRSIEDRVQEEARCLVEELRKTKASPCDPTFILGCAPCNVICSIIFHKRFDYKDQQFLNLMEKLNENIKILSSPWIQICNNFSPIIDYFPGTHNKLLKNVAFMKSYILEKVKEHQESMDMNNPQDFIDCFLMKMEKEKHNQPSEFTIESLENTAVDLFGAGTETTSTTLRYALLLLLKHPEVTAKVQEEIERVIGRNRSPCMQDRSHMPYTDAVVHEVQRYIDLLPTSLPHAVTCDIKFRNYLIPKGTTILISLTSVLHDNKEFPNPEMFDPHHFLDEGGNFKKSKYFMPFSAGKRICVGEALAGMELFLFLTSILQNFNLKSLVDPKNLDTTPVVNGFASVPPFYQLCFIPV
# [2] = molecular target: Dual specificity tyrosine-phosphorylation-regulated kinase 1A (Rattus norvegicus, UniProt Q63470); assay type: biochemical, Homo sapiens
# Cytochrome P450 2C19 = Cytochrome P450 2C19 (Homo sapiens, UniProt P33261); experiment: Cytochrome panel assay with activity outcomes. Panel member name: p450-cyp2c19 Compounds with AC50 equal or less than 10 uM are considered active; assay type: functional; settings: read-out: AC50
# Sequence of Cytochrome P450 2C19 (P33261 whole entry): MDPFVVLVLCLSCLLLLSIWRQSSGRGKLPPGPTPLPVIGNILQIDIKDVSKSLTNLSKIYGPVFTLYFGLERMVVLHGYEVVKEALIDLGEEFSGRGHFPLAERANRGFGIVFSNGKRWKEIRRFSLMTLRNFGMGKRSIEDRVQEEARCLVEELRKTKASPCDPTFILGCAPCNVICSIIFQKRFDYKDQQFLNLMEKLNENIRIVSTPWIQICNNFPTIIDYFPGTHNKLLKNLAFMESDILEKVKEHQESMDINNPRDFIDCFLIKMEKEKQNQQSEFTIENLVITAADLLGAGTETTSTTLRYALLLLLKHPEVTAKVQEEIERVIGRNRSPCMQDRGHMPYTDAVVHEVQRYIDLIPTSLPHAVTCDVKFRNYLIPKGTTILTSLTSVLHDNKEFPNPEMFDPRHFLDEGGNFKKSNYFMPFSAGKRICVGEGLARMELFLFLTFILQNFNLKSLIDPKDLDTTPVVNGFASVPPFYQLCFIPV
# Tumor necrosis factor = Tumor necrosis factor (Homo sapiens, UniProt P01375); experiment: analog potency on TNFa NF-kB signaling – cell-based, revised, SAR follow-up (AID 2337); assay type: functional
# Sequence of Tumor necrosis factor (P01375 whole entry): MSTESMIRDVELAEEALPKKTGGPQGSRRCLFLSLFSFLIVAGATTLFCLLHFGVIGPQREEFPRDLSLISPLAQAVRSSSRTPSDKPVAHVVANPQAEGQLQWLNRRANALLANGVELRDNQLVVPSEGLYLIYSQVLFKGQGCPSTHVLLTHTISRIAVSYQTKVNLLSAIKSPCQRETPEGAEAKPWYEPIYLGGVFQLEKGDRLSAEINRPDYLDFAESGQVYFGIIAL
# HEK293 [3] = experiment: cells; settings: Homo sapiens
# [4] = molecular target: T2, COUP transcription factor 2 (Homo sapiens, UniProt P24468); experiment: Luminescence-based cell-based high throughput dose response assay to identify inhibitors of COUP-TFII (NR2F2).; assay type: functional;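 note: HEK293 cells transiently cotransfected with COUP-TFII expression vector and reporter; luciferase reporter luminescence driven by COUP-TFII from the pX2-168 reporter plasmid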
# T2 sequence (P24468 whole entry): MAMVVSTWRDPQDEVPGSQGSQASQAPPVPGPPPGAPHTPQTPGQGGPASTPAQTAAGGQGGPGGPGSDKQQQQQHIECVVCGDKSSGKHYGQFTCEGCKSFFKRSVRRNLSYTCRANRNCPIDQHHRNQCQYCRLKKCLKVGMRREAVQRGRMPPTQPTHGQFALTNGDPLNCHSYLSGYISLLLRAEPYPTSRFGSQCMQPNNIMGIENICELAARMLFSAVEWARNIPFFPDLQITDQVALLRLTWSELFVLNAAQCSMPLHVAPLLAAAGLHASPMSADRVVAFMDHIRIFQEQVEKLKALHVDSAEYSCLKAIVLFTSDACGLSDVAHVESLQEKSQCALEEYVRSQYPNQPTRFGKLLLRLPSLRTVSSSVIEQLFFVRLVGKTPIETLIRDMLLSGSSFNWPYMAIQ
# INS1 = experiment: INS-1E survival protection against cytokine death – cell-based, luminescence, retest, dose response (AID 449756); assay type: functional; settings: Rattus norvegicus;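 note: cell death triggered by IL-1 beta plus TNF-alpha plus IFN-gamma mixture; protective hits raise ATP signal compared with cytokine alone wells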
# [5] = molecular target: T3, Nucleotide-binding oligomerization domain-containing protein 1 (Homo sapiens, UniProt Q9Y239); experiment: blockers of NOD1 pathway activity – revised, SAR follow-up (AID 2333); assay type: functional
# T3 sequence (Q9Y239 whole entry): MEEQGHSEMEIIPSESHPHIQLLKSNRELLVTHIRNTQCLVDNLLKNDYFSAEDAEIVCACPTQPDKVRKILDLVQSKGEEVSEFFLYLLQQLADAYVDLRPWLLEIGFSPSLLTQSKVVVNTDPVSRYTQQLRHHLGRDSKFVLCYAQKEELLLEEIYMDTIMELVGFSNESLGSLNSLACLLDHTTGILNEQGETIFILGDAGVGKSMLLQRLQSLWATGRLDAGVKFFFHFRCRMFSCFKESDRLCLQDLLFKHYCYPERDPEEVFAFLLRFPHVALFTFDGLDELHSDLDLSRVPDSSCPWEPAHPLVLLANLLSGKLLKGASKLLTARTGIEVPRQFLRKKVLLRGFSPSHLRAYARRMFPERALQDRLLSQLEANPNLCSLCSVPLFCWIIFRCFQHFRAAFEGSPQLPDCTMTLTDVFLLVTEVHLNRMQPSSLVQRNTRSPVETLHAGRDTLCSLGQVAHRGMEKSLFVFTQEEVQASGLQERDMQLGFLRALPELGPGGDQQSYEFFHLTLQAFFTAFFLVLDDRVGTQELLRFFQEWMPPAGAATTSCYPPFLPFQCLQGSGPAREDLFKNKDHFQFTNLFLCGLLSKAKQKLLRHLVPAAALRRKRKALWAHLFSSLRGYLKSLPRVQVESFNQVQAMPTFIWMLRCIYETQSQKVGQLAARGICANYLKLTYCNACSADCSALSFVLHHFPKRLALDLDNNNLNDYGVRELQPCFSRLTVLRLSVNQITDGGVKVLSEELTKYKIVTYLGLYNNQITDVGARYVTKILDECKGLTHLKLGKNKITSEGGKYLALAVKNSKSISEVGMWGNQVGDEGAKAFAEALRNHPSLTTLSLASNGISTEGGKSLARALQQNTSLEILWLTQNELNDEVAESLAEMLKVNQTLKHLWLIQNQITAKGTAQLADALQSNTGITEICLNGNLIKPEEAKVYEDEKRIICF
# [6] = molecular target: T4, Serine/threonine-protein phosphatase (Candida dubliniensis (strain CD36 / CBS 7987 / NCPF 3949 / NRRLY-17841) (Yeast), UniProt B9W6M3); experiment: blockers of CaCl2-induced CDRE-lacZ signaling – S. cerevisiae, luminescence, secondary, dose response (AID 2388); assay type: functional, cell-based;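 note: yeast reporter cells carrying a calcineurin-responsive lacZ construct stimulated with calcium chloride; luminescent beta-galactosidase reporter signal in whole cells rather than isolated phosphatase activity; potency for inhibition where a drop in reporter signal means calcineurin blockade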
# T4 sequence (B9W6M3 whole entry): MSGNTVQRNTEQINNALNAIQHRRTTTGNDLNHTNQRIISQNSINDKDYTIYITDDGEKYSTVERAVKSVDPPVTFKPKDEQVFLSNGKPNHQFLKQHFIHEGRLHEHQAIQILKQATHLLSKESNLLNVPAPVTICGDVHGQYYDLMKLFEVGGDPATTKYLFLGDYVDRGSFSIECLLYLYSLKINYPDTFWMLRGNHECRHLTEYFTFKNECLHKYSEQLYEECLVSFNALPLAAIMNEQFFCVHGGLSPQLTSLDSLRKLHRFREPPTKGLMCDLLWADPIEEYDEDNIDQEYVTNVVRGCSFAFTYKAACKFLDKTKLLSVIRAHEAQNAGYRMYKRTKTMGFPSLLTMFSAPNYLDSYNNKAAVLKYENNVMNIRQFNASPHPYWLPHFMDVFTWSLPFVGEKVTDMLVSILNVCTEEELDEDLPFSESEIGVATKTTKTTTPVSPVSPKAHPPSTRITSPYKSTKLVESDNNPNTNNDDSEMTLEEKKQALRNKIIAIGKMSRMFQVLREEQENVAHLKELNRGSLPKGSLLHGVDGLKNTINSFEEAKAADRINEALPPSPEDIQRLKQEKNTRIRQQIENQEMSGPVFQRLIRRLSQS
# [7] = fluconazole-exposed Candida albicans growth modulators – fluorescence, retest, confirmation (AID 2467); assay type: functional, cell-based
# [8] = molecular target: ATP-dependent molecular chaperone HSP82 (Candida albicans (strain WO-1) (Yeast), UniProt C4YTQ8); experiment: steroid-induced GRE reporter decrease in yeast – S. cerevisiae, luminescence, Hsp90 inhibitor project, dose response (AID 2400); assay type: functional, cell-based;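 note: beta-galactosidase luminescence from glucocorticoid response element reporter as proxy for Hsp90 function; inhibitor potency where signal loss means Hsp90 inhibition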
# Sequence of ATP-dependent molecular chaperone HSP82 (C4YTQ8 whole entry): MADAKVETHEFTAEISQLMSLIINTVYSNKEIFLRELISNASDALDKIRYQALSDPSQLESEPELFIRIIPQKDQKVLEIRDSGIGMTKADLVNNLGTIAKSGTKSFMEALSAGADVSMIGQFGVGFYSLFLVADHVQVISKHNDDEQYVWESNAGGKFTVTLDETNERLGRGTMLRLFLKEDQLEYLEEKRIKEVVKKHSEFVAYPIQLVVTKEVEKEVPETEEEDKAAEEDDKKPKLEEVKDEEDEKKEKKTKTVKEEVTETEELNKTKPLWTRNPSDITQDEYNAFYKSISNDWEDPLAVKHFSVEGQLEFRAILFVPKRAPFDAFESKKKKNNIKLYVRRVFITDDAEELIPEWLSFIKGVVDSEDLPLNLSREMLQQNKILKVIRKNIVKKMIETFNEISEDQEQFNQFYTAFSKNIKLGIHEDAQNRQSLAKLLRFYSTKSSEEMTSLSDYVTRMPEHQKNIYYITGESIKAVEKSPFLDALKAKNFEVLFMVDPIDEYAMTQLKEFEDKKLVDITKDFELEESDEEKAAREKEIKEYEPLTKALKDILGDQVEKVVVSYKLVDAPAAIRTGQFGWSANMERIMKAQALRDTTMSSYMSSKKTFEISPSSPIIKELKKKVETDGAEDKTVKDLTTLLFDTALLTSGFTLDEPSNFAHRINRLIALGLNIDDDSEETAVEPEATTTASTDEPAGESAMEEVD
# [9] = HEK-293T viability loss after treatment – luminescence, T-cell screen hits, cytotoxicity control for TCR NF-kB inhibitor project, dose response (AID 489026); assay type: functional, cell-based;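 note: cells exposed to compound about 14 hours before the viability readout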
# [10] = NIH-3T3 fibroblast cytotoxicity, dose response, cytotoxicity control, cell-based, fluorescence, Alamar Blue, secondary assay (AID 2327); assay type: functional;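 note: NIH-3T3 mouse fibroblasts cultured with fluconazole at 8 µg/mL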
# HEK293 [11] = experiment: cells; assay type: functional, cell-based; settings: Homo sapiens
# HEK293 [12] = experiment: NOD2 signaling inhibitors in MDP-stimulated cells, cell-based, uHTS, luminescence (AID 2001); assay type: functional; settings: Homo sapiens
# HEK293 [13] = experiment: inhibition of NOD1-driven NF-kB reporter – cell-based, luminescence, uHTS, primary screen (AID 1578); assay type: functional; settings: Homo sapiens
# HEK293 [14] = experiment: cells; assay type: functional, cell-based; settings: Homo sapiens; remark: listed apart in the source
# [15] = molecular target: Nucleotide-binding oligomerization domain-containing protein 2 (Homo sapiens, UniProt Q9HC29); experiment: inhibition of NOD2-driven NF-kB reporter – cell-based, luminescence, uHTS, HEK293 (AID 1566); assay type: functional
# Sequence of Nucleotide-binding oligomerization domain-containing protein 2 (Q9HC29 whole entry, the tested form may be a part): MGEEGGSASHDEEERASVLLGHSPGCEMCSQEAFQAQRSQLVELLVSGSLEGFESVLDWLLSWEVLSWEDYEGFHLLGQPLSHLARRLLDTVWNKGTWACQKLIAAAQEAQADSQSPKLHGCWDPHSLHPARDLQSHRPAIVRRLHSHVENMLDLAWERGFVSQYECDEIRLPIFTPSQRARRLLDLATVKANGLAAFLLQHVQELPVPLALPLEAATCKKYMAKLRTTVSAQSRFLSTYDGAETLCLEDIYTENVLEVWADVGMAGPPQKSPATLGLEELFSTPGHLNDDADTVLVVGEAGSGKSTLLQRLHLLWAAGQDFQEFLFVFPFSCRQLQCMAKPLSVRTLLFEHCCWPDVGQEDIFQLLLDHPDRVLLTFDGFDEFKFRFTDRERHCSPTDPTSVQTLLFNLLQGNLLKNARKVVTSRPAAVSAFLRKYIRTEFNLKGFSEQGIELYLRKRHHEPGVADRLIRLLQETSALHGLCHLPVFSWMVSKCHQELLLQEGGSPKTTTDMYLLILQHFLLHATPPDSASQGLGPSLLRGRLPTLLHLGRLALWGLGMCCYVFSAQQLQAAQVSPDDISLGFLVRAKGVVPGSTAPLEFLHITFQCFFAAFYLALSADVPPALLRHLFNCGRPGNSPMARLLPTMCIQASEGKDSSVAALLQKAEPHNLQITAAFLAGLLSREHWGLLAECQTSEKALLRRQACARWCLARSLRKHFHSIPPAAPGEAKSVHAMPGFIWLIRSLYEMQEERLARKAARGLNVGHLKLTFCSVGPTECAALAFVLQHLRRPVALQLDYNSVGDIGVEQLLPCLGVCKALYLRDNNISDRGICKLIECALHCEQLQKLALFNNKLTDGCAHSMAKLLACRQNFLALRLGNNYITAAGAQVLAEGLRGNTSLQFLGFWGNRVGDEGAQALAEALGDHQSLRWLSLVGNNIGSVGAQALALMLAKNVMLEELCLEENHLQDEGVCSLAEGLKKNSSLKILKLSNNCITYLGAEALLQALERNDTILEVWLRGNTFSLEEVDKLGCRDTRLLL
# HEK293 [16] = experiment: cells; assay type: functional, cell-based; settings: Homo sapiens; remark: listed apart in the source
# [17] = molecular target: T5, Heat shock factor protein 1 (Mus musculus, UniProt P38532); experiment: decrease of HSF1-responsive luciferase luminescence – cell-based, NIH3T3, dose retest, confirmation (AID 2382); assay type: functional;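 note: NIH3T3 fibroblasts with HSF1-driven luciferase reporter stressed by proteasome inhibitor MG132; luminescence from HSF1-driven luciferase expression after 8 hours of MG132 stress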
# T5 sequence (P38532 whole entry): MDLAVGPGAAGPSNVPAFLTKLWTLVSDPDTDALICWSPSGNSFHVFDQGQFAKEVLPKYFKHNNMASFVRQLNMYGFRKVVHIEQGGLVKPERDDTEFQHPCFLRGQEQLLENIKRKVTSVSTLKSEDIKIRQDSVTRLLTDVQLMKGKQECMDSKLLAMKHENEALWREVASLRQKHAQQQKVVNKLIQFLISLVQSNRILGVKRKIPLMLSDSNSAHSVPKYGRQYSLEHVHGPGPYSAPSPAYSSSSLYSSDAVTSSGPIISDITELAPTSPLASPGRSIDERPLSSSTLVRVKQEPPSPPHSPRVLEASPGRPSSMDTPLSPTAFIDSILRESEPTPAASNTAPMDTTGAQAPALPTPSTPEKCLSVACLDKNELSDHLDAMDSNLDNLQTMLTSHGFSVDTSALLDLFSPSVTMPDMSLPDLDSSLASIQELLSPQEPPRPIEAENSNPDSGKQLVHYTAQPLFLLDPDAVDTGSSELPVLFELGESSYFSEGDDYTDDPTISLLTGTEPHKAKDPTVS
compound,measurement,setting,value
COc1ccc(C(=O)Nc2cnn(Cc3ccc(Cl)cc3)c2)cc1OC,AC50,Escherichia coli,96.5 µM (active)
CCCn1c2ccccc2c2cnn(CC(=O)NCCCN3CCCC(C)C3)c(=O)c21 (configuration not stated),IC50,[1],15.1 µM (active)
NC1=NC(=O)/C(=C/c2cccs2)S1,AC50,Cytochrome P450 2C9,inconclusive
same,AC50,[2],1.21 µM (active)
same,AC50,Cytochrome P450 2C19,25.1 µM (inconclusive)
Cc1ccc2c(CC(=O)Nc3ccc(N4CCN(C)CC4)cc3C)coc2c1,AC50,Escherichia coli,43.5 µM (active)
CCc1cc(C(=O)NC2CCCc3c2cnn3-c2cccc(C)c2C)n(C)n1 (configuration not stated),IC50,Tumor necrosis factor,179 nM (active)
same,IC50,HEK293 [3],> 20 µM (inactive)
same,IC50,[4],> 117 nM (active)
same,AC50,INS1,< 195 nM (active)
same,IC50,[5],98.3 nM (active)
same,EC50,[6],> 180 µM (inactive)
same,EC50,[7],142 nM (active)
same,EC50,[8],> 150 µM (inactive)
same,IC50,[9],> 80 µM (inactive)
same,EC50,[10],> 150 µM (inactive)
Cc1ccc2oc(N=C(N)NC(=O)C(C)(C)C)nc2c1,IC50,Tumor necrosis factor,< 39.1 nM (active)
same,IC50,HEK293 [3],> 20 µM (inactive)
same,IC50,HEK293 [11],> 20 µM (inactive)
same,IC50,HEK293 [12],4.71 µM (active)
same,EC50,HEK293 [13],< 310 nM (inactive)
same,IC50,[5],94.9 nM (active)
same,IC50,HEK293 [14],> 20 µM (inactive)
same,EC50,[15],10 nM (active)
same,IC50,[9],> 80 µM (inactive)
same,IC50,HEK293 [16],< 312 nM (active)
same,EC50,[17],< 160 nM (active)
